The test system of data set [1] is human epidermoid carcinoma, KB-3-1. Nature of the data set: In vitro cytotoxicity, Microculture Tetrazolium Assay, KB-3-1. Format: cell-based. As to the method: (§1) A/In Vitro Activity: Cytotoxicity
(§2) Four cell lines were used:
(§3) The cells are distributed onto microplates and exposed to the cytotoxic compounds. The cells are then incubated for 2 days (P388) or 4 days (LLC, KB-A1, KB-3-1).

Data set [2] relates to murine lung carcinoma, Lewis Lung Carcinoma (LLC). Nature of the data set: In vitro cytotoxicity, Microculture Tetrazolium Assay, LLC. Format: cell-based. The settings on record: Mus musculus, 96 h. As to the method:
as §1, §2
1 murine lung carcinoma, Lewis Lung Carcinoma (LLC),
as §3

The test system of data set [3] is KB-A1 (multi-drug resistant line induced by adriamycin). Put plainly: In vitro cytotoxicity, Microculture Tetrazolium Assay, KB-A1 (adriamycin-resistant). It is filed as cell-based. The following applies: Homo sapiens. Here is the method:
as §1, §2
the corresponding resistant line, KB-A1, the multi-drug resistance of which was induced by adriamycin (ADR).
as §3

For the next data set, the system named is murine leukaemia P388. Put plainly: In vitro cytotoxicity, Microculture Tetrazolium Assay, P388. It is filed as cell-based. The following applies: Mus musculus. As to the method:
as §1, §2, §3

For data set [4], the system named is human lung carcinoma NCI-H460. Put plainly: Anti-tumour activity in an orthotopic model of human lung carcinoma NCI-H460 implanted intrapleurally. It is filed as in vivo, human (tumour line, in female Nude Balb/C mice). The settings on record: for toxicity of the dose: dihydrochloride. Here is the method: 2/Anti-tumour Activity of the Compounds in an Orthotopic Model of Human Lung Carcinoma NCI-H460 Implanted Intrapleurally
The line NCI-H460, which originates from a human lung carcinoma of "not small cell" type, was supplied by the American Type Culture Collection (Frederick, USA). The cells are cultured in vitro in complete RPMI 1640 medium in Falcon flasks. On the day of the implantation, the cells are separated using trypsin, centrifuged and suspended in complete culture medium. The cells are then implanted in the pleural cavity of female Nude Balb/C mice (10^6 cells per mouse). The products are administered i.v. to groups of 6 animals on days 7 and 14 at the doses indicated. The anti-tumour activity is expressed in % T/C as defined above.
Table 3 lists the results obtained with the compound of Example 3 of the present Application (especially representative of the invention) and with the closest compound of the prior art as reference product.

The test system of the next data set is leukaemia P388. Put plainly: Anti-tumour activity on leukaemia P388 (i.p.) in female BDF1 mice. Format: in vivo, murine (female BDF1 mice). Here is the method: 1/Anti-tumour Activity of the Compounds on Leukaemia P388
The line P388 (murine leukaemia) was supplied by the National Cancer Institute (Frederick, USA). The tumour cells (10^6 cells) were injected on day 0 into the peritoneal cavity of female BDF1 mice (Iffa-Credo, France) weighing from 18 to 20 g (groups of 6 or 7 animals).
The products were administered intravenously, at the doses indicated, on day 1 or on days 1, 5 and 9.
The anti-tumour activity is expressed in % T/C: [formula]
The number of animals surviving 60 days (long-term survival) is indicated.
By way of example, Table 2 gives the results obtained with the compound of Example 32 which is especially representative of the invention.

Where [5] appears, read: 96 h, KB-3-1, 4 days incubation, read-out: IC50.
[6] abbreviates: LLC, 4 days incubation, read-out: IC50.
Setting [7] is: 96 h, KB-A1, 4 days incubation, read-out: IC50.
Setting [8] is: 48 h, P388, 2 days incubation, read-out: IC50.
Setting [9] is: i.v. on days 7 and 14, 56.5 mg/kg.
[10] abbreviates: i.v. on days 7 and 14, 80 mg/kg.
[11] abbreviates: i.v. on days 7 and 14, 113 mg/kg.

pIC50: −log10 of the molar value. Structures can show the parent of a compound that is named as a salt. Where two headings read alike, the source gives them in different places.

As for `COc1cccc2c1C(=O)c1c(O)c3c(c(O)c1C2=O)C[C@@](O)(C(=O)CO)C[C@@H]3O[C@H]1C[C@H](N)[C@H](O)[C@H](C)O1` [ADR, adriamycin, reference compound], the pIC50 in data set [1] (KB 3-1, 96 h) is 7.76; in data set [2], 7.71; in data set [3] (KB-A1, 96 h) it was 5.17; in the data set on murine leukaemia P388 (P388, 48 h), 7.74.
Turning to `CC(=O)Oc1ccc2c(c1)c1cc3c(C(=O)NCCN(C)C)nccc3c(C)c1n2C` [Example 2, 1-[(2-Dimethylaminoethyl)aminocarbonyl]-5,6-dimethyl-9-acetoxy-6H-pyrido-[4,3-b]carbazole], the pIC50 in data set [1] (setting [5]) was 7.44; in data set [2] (setting [6]), 7.87; in data set [3] (setting [7]) it was 6.12; with murine leukaemia P388 (setting [8]), 8.24.
Take `Cc1c2ccnc(C(=O)NCCN(C)C)c2cc2c3cc(OC(=O)CCCC(=O)O)ccc3n(C)c12.Cl.Cl` [Example 3, 1-[(2-Dimethylaminoethyl)aminocarbonyl]-5,6-dimethyl-9-(4-carboxybutanoyloxy)-6H-pyrido-[4,3-b]carbazole dihydrochloride]: the pIC50 in data set [1] (setting [5]) is 7.13; in data set [2] (setting [6]), 7.36; in data set [3] (setting [7]), 6.03; in the data set on murine leukaemia P388 (setting [8]) it was 8.15. The “increase in survival of the animals” value in data set [4] (administered twice at 160 mg/kg i.v.) is 81%. The tolerability entry in data set [4] (even at a strong dose, i.v.) is on record as “very well tolerated”. In data set [4] (i.v.), the therapeutic index entry is reported as “excellent”. Also, the anti-tumour activity result in data set [4] (i.v. on days 7 and 14) is “active”. Moreover, the T/C % was 133% in data set [4] (setting [9]); 147% in data set [4] (setting [10]); 174% in data set [4] (setting [11]); 181% in data set [4] (i.v. on days 7 and 14, 160 mg/kg).
Turning to `Cc1c2ccnc(C(=O)NCCN(C)C)c2cc2c3cc(OC(=O)CCCCC(=O)O)ccc3n(C)c12` [Example 32, 1-[(2-Dimethylaminoethyl)aminocarbonyl]-5,6-dimethyl-9-(5-carboxypentanoyloxy)-6H-pyrido[4,3-b]carbazole], the pIC50 in data set [1] (setting [5]) is 7.39; in data set [2] (setting [6]), 8.46; in data set [3] (setting [7]), 6.12; with murine leukaemia P388 (setting [8]), 8.29. Further, the tolerability entry in the data set with leukaemia P388 (even at a very high dose, i.v.) is “well tolerated”. Also, in the data set on leukaemia P388 (even at a very high dose, i.v.), the “weight loss and premature death” value is reported as “neither significant weight loss nor premature death”. In addition, in the data set with leukaemia P388 (i.v.), the general toxicity result is “very low general toxicity”. Besides, the therapeutic index entry with leukaemia P388 (i.v.) is listed as “excellent therapeutic index”. Further, the T/C % in the data set with leukaemia P388 (i.v. on D1, 20 mg/kg) is recorded as 125%; with leukaemia P388 (i.v. on D1, 40 mg/kg), 154%; with leukaemia P388 (i.v. on D1, 80 mg/kg), 186%; with leukaemia P388 (i.v. on D1, 160 mg/kg), 233%; in the data set with leukaemia P388 (i.v. on D1, 240 mg/kg), > 600%; in the data set on leukaemia P388 (i.v. on D1, 320 mg/kg) it was > 600%. Moreover, the T/C % in the data set with leukaemia P388 (i.v. on D1, 5 and 9, 10 mg/kg) is given as 137%; in the data set with leukaemia P388 (i.v. on D1, 5 and 9, 20 mg/kg), 171%; in the data set on leukaemia P388 (i.v. on D1, 5 and 9, 40 mg/kg) it was 236%; in the data set on leukaemia P388 (i.v. on D1, 5 and 9, 80 mg/kg) it was > 600%; in the data set with leukaemia P388 (i.v. on D1, 5 and 9, 160 mg/kg) it was > 600%. Moreover, the “number of animals surviving 60 days (cured)” value was 4/7 with leukaemia P388 (i.v. on D1, 240 mg/kg); 6/7 in the data set with leukaemia P388 (i.v. on D1, 320 mg/kg); 6/7 in the data set with leukaemia P388 (i.v. on D1, 5 and 9, 80 mg/kg); 6/7 with leukaemia P388 (i.v. on D1, 5 and 9, 160 mg/kg).
For the molecule `Cc1c2ccnc(C(=O)NCCN(C)C)c2cc2c3cc(O)ccc3n(C)c12` [Reference product, 1[(2dimethylaminoethyl)aminocarbonyl5,6-dimethyl-9-hydroxy-6H-pyrido-[4,3]carbazoledihydrochloride, reference compound], the “mouse dead during the treatments” value in data set [4] (113 mg/kg i.v., days 7 and 14) worked out at 1 mouse. Further, the “toxicity of the dose” value was “toxic dose” in data set [4] (113 mg/kg i.v., days 7 and 14); “toxic” in data set [4] (113 mg/kg i.v., days 7 and 14, listed as reference product). The T/C % stood at 126% in data set [4] (i.v. on days 7 and 14, 40 mg/kg); 145% in data set [4] (setting [9]); 156% in data set [4] (setting [10]); 186% in data set [4] (setting [11]).

Broadly, the pIC50 is the negative decadic logarithm of the IC50, by convention in mol/L.

The record behind these values is patent US6162811A, “Ellipticine compounds” (Adir et Compagnie, priority 1996, dated 2000).
